Results from patent US20230159532A1, “PARATHYROID HORMONE (PTH) RECEPTOR ANTAGONISTS AND USES THEREOF” (Crinetics Pharmaceuticals, Inc., priority 2021, published 2023).

Target: T1, human PTHR1 receptor (Homo sapiens, UniProt Q03431)
T1 construct: purchased Eurofins HTS030M
T1 sequence (Q03431 27-593): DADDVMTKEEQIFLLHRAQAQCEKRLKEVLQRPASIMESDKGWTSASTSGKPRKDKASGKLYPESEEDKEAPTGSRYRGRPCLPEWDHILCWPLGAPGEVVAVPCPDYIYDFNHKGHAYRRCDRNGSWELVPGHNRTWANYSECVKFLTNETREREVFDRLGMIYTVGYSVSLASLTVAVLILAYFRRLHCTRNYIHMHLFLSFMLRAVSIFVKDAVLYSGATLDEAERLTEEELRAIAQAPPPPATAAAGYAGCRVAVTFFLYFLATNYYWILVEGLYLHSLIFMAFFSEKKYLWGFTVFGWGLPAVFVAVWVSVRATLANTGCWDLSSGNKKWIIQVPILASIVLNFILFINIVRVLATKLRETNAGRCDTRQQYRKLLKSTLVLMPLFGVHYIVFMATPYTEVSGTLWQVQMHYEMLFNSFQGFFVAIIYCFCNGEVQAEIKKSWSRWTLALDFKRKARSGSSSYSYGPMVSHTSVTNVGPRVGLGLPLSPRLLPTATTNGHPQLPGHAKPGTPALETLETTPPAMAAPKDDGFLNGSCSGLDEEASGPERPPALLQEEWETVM
Assay: Competitive antagonist binding assay for hPTH-R1 (radioactive competition binding, SPA beads)
Settings: human PTHR1 membranes, [125I]-[Nle8,18,Tyr34]-PTH(1-34) 0.2 nM, 90 minutes at room temperature; read-out: hPTHR1 Ki
How it was run: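 Displacement of 0.2 nM radioiodinated [Nle8,18,Tyr34]-PTH(1-34) from membrane-bound human PTHR1 measured by scintillation proximity after 90 min at room temperature. Compounds typically 0-10,000 nM final, pH 7.4 HEPES/Mg/Ca buffer with BSA and detergent. Ki calculated from competition data.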

Structure (SMILES) | Ki [nM]
CCN1C(=O)N(c2c(F)cc(NCCNC)cc2F)c2cc(C#N)cc(C)c2-c2cc(F)cnc21 [1-62, 10-(2,6-difluoro-4-{[2-(methylamino)ethyl]amino}phenyl)-8-ethyl-4-fluoro-15-methyl-9-oxo-6,8,10-triazatricyclo[9.4.0.0^2,7]pentadeca-1(11),2(7),3,5,12,14-hexaene-13-carbonitrile] | < 100
CCN1C(=O)N(c2c(F)cc(NCCNC)cc2F)c2cc(Cl)cc(OC)c2-c2cc(F)cnc21 [1-87, 13-chloro-10-(2,6-difluoro-4-{[2-(methylamino)ethyl]amino}phenyl)-8-ethyl-4-fluoro-15-methoxy-6,8,10-triazatricyclo[9.4.0.0^2,7]pentadeca-1(11),2(7),3,5,12,14-hexaen-9-one] | < 100
CCCN1C(=O)N(c2c(F)cc(NCCNCCO)cc2F)c2cc(C#N)ccc2-c2cc(F)cnc21 [1-118, 10-[2,6-difluoro-4-({2-[(2-hydroxyethyl)amino]ethyl}amino)phenyl]-4-fluoro-9-oxo-8-propyl-6,8,10-triazatricyclo[9.4.0.0^2,7]pentadeca-1(11),2(7),3,5,12,14-hexaene-13-carbonitrile] | < 100
CCN1C(=O)N(c2c(F)cc(NCCNCCCC(=O)O)cc2F)c2cc(Cl)ccc2-c2cc(F)cnc21 [1-16, 4-({2-[(4-{13-chloro-8-ethyl-4-fluoro-9-oxo-6,8,10-triazatricyclo[9.4.0.0^2,7]pentadeca-1(11),2(7),3,5,12,14-hexaen-10-yl}-3,5-difluorophenyl)amino]ethyl}amino)butanoic acid] | < 100
CN1C(=O)N(c2c(F)cc(NCCNCCO)cc2F)c2cc(Cl)ccc2-c2cc(Cl)cnc21 [1-34, 4,13-dichloro-10-[2,6-difluoro-4-({2-[(2-hydroxyethyl)amino]ethyl}amino)phenyl]-8-methyl-6,8,10-triazatricyclo[9.4.0.0^2,7]pentadeca-1(11),2(7),3,5,12,14-hexaen-9-one] | < 100
CCN1C(=O)N(c2c(F)cc(NCCNCCO)cc2F)c2ccccc2-c2cc(Cl)cnc21 [1-142, 4-chloro-10-[2,6-difluoro-4-({2-[(2-hydroxyethyl)amino]ethyl}amino)phenyl]-8-ethyl-6,8,10-triazatricyclo[9.4.0.0^2,7]pentadeca-1(11),2(7),3,5,12,14-hexaen-9-one] | < 100
CNCCNc1cc(F)c(N2C(=O)N(C)c3ncc(Cl)cc3-c3c(F)cc(C#N)cc32)c(F)c1 [1-115, 4-chloro-10-(2,6-difluoro-4-{[2-(methylamino)ethyl]amino}phenyl)-15-fluoro-8-methyl-9-oxo-6,8,10-triazatricyclo[9.4.0.0^2,7]pentadeca-1(11),2(7),3,5,12,14-hexaene-13-carbonitrile] | < 100
CCN1C(=O)N(c2c(F)cc(NCCNC)cc2F)c2cc(Cl)cc(C)c2-c2cc(F)cnc21 [1-32, 13-chloro-10-(2,6-difluoro-4-{[2-(methylamino)ethyl]amino}phenyl)-8-ethyl-4-fluoro-15-methyl-6,8,10-triazatricyclo[9.4.0.0^2,7]pentadeca-1(11),2(7),3,5,12,14-hexaen-9-one] | < 100
CNCCNc1cc(F)c(N2C(=O)N(CC3CC3)c3ncc(Cl)cc3-c3ccc(Cl)cc32)c(F)c1 [1-46, 4,13-dichloro-8-(cyclopropylmethyl)-10-(2,6-difluoro-4-{[2-(methylamino)ethyl]amino}phenyl)-6,8,10-triazatricyclo[9.4.0.0^2,7]pentadeca-1(11),2(7),3,5,12,14-hexaen-9-one] | < 100
CN1C(=O)N(c2c(F)cc(NCCNCCO)cc2F)c2cc(C#N)cc(F)c2-c2cc(Cl)cnc21 [1-116, 4-chloro-10-[2,6-difluoro-4-({2-[(2-hydroxyethyl)amino]ethyl}amino)phenyl]-15-fluoro-8-methyl-9-oxo-6,8,10-triazatricyclo[9.4.0.0^2,7]pentadeca-1(11),2(7),3,5,12,14-hexaene-13-carbonitrile] | < 100
CCN1C(=O)N(c2c(F)cc(NCCNC)cc2F)c2cc(Cl)cc(C)c2-c2cc(Cl)cnc21 [1-36, 4,13-dichloro-10-(2,6-difluoro-4-{[2-(methylamino)ethyl]amino}phenyl)-8-ethyl-15-methyl-6,8,10-triazatricyclo[9.4.0.0^2,7]pentadeca-1(11),2(7),3,5,12,14-hexaen-9-one] | < 100
CCN1C(=O)N(c2c(F)cc(NCCN)cc2F)c2cc(Cl)ccc2-c2cc(C)cnc21 [1-22, 10-{4-[(2-aminoethyl)amino]-2,6-difluorophenyl}-13-chloro-8-ethyl-4-methyl-6,8,10-triazatricyclo[9.4.0.0^2,7]pentadeca-1(11),2(7),3,5,12,14-hexaen-9-one] | < 100
CCN1C(=O)N(c2c(F)cc(NCCNCCCC(=O)O)cc2F)c2cc(Cl)cc(F)c2-c2cc(F)cnc21 [1-96, 4-({2-[(4-{13-chloro-8-ethyl-4,15-difluoro-9-oxo-6,8,10-triazatricyclo[9.4.0.0^2,7]pentadeca-1(11),2(7),3,5,12,14-hexaen-10-yl}-3,5-difluorophenyl)amino]ethyl}amino)butanoic acid] | < 100
CN1C(=O)N(c2c(F)cc(NCCNCCO)cc2F)c2cc(C#N)cc(F)c2-c2cc(F)cnc21 [1-110, 10-[2,6-difluoro-4-({2-[(2-hydroxyethyl)amino]ethyl}amino)phenyl]-4,15-difluoro-8-methyl-9-oxo-6,8,10-triazatricyclo[9.4.0.0^2,7]pentadeca-1(11),2(7),3,5,12,14-hexaene-13-carbonitrile] | < 100

The next lines start with the values.

Ki [nM] | Structure (SMILES)
< 100 | CC(C)N1C(=O)N(c2c(F)cc(N3CC[C@@H](N)C3)cc2F)c2cc(C#N)cc(F)c2-c2cc(F)cnc21 [1-212, 10-{4-[(3R)-3-aminopyrrolidin-1-yl]-2,6-difluorophenyl}-4,15-difluoro-9-oxo-8-(propan-2-yl)-6,8,10-triazatricyclo[9.4.0.0^2,7]pentadeca-1(15),2(7),3,5,11,13-hexaene-13-carbonitrile]
< 100 | CCN1C(=O)N(c2ncc(NCCNCCO)cc2F)c2cc(Cl)ccc2-c2cc(Cl)cnc21 [2-10, 4,13-dichloro-8-ethyl-10-[3-fluoro-5-({2-[(2-hydroxyethyl)amino]ethyl}amino)pyridin-2-yl]-6,8,10-triazatricyclo[9.4.0.0^2,7]pentadeca-1(11),2(7),3,5,12,14-hexaen-9-one]
100 to 1000 | CCN1C(=O)N(c2c(F)cc(NCCN)cc2F)c2cc(Cl)ccc2-c2c1ncc(Cl)c2C [3-8, 10-{4-[(2-aminoethyl)amino]-2,6-difluorophenyl}-4,13-dichloro-8-ethyl-3-methyl-6,8,10-triazatricyclo[9.4.0.0^2,7]pentadeca-1(11),2(7),3,5,12,14-hexaen-9-one]
< 100 | CC(C)N1C(=O)N(c2c(F)cc(NCCNCCCC(=O)O)cc2F)c2cc(C#N)cc(F)c2-c2cc(F)cnc21 [1-163, 4-{[2-({4-[13-cyano-4,15-difluoro-9-oxo-8-(propan-2-yl)-6,8,10-triazatricyclo[9.4.0.0^2,7]pentadeca-1(15),2(7),3,5,11,13-hexaen-10-yl]-3,5-difluorophenyl}amino)ethyl]amino}butanoic Acid]
< 100 | CCN1C(=O)N(c2c(F)cc(NCCNCCOCCO)cc2F)c2cc(C#N)ccc2-c2cc(Cl)cnc21 [1-181, 4-chloro-10-{2,6-difluoro-4-[(2-{[2-(2-hydroxyethoxy)ethyl]amino}ethyl)amino]phenyl}-8-ethyl-9-oxo-6,8,10-triazatricyclo[9.4.0.0^2,7]pentadeca-1(11),2(7),3,5,12,14-hexaene-13-carbonitrile]
< 100 | CCN1C(=O)N(c2c(F)cc(N3CC[C@H](NC)C3)cc2F)c2cc(C#N)ccc2-c2cc(Cl)cnc21 [1-235, 4-chloro-10-{2,6-difluoro-4-[(3S)-3-(methylamino)pyrrolidin-1-yl]phenyl}-8-ethyl-9-oxo-6,8,10-triazatricyclo[9.4.0.0^2,7]pentadeca-1(11),2(7),3,5,12,14-hexaene-13-carbonitrile]
< 100 | CCN1C(=O)N(c2c(F)cc(NCCNC)cc2F)c2c(ccc(Cl)c2F)-c2cc(Cl)cnc21 [3-9, 4,13-dichloro-10-(2,6-difluoro-4-{[2-(methylamino)ethyl]amino}phenyl)-8-ethyl-12-fluoro-6,8,10-triazatricyclo[9.4.0.0^2,7]pentadeca-1(11),2(7),3,5,12,14-hexaen-9-one]
< 100 | CCN1C(=O)N(c2c(F)cc(NCCN[C@H]3C[C@H](O)C3)cc2F)c2cc(C#N)ccc2-c2cc(Cl)cnc21 [1-187, 4-chloro-10-{2,6-difluoro-4-[(2-{[(1r,3r)-3-hydroxycyclobutyl]amino}ethyl)amino]phenyl}-8-ethyl-9-oxo-6,8,10-triazatricyclo[9.4.0.0^2,7]pentadeca-1(11),2(7),3,5,12,14-hexaene-13-carbonitrile]
< 100 | CCN1C(=O)N(c2c(F)cc(NCCNC(CO)CO)cc2F)c2cc(C#N)ccc2-c2cc(Cl)cnc21 [1-157, 4-chloro-10-[4-({2-[(1,3-dihydroxypropan-2-yl)amino]ethyl}amino)-2,6-difluorophenyl]-8-ethyl-9-oxo-6,8,10-triazatricyclo[9.4.0.0^2,7]pentadeca-1(11),2(7),3,5,12,14-hexaene-13-carbonitrile]
